Results reported in PMC11822212, “High-throughput screening identifies Aurora kinase B as a critical therapeutic target for Merkel cell carcinoma” (Nature Communications, 2025).
Where a name gives a salt, the structure may show the parent alone.

What was measured:
[1] = tested on: HEK293T cells; assay: qHTS cell viability (CellTiter-Glo, 72 h; primary screen), control cell line; format: cell-based, human
[2] = tested on: UISO cells (VN-MCC); assay: qHTS cell viability (CellTiter-Glo, 72 h; primary and follow-up small molecule screen); format: cell-based, human
[3] = tested on: MKL-1 cells (VP-MCC); assay: as above; format: cell-based, human
[4] = tested on: MKL-2 cells (VP-MCC); assay: as above; format: cell-based, human
[5] = tested on: WAGA cells (VP-MCC); assay: as above; format: cell-based, human
[6] = tested on: CRL-7250 cells; assay: qHTS cell viability (CellTiter-Glo, 72 h; primary screen), control cell line; format: cell-based
[7] = tested on: control cell lines (HACAT, HEK293T, CRL-7250, NIH-3T3); assay: qHTS cell viability, control cell lines as a group (mean AUC, Control.avg); format: cell-based; conditions: mean AUC of control cell lines
[8] = tested on: HACAT cells; assay: qHTS cell viability (CellTiter-Glo, 72 h; primary screen), control cell line; format: cell-based, human
[9] = tested on: MCC13 cells (VN-MCC); assay: qHTS cell viability (CellTiter-Glo, 72 h; primary and follow-up small molecule screen); format: cell-based, human
[10] = tested on: MCC cell lines (WAGA, MKL-1, MKL-2, MCC13, MCC26, UISO); assay: qHTS cell viability, all six MCC cell lines as a group (mean AUC, MCC.avg); format: cell-based, human; conditions: mean AUC of six MCC cell lines
[11] = tested on: six MCC cell lines and four control cell lines; assay: qHTS cell viability, all 10 cell lines screened; format: cell-based
[12] = tested on: VP-MCC cell lines (WAGA, MKL-1, MKL-2); assay: qHTS cell viability, VP-MCC cell lines as a group (mean AUC, VP.MCC.avg); format: cell-based, human; conditions: for VP-MCC_Avg_AUC: mean AUC of VP-MCC cell lines
[13] = tested on: NIH-3T3 cells; assay: qHTS cell viability (CellTiter-Glo, 72 h; primary screen), control cell line; format: cell-based, mouse
[14] = tested on: VN-MCC cell lines (MCC13, MCC26, UISO); assay: qHTS cell viability, VN-MCC cell lines as a group (mean AUC, VN.MCC.avg); format: cell-based, human; conditions: for VN-MCC_Avg_AUC: mean AUC of VN-MCC cell lines
[15] = tested on: MCC26 cells (VN-MCC); assay: qHTS cell viability (CellTiter-Glo, 72 h; primary and follow-up small molecule screen); format: cell-based, human
[16] = NPC library, qHTS dose-response AUC, HEK293T control
[17] = NPC library, qHTS dose-response AUC, UISO
[18] = NPC library, qHTS dose-response AUC, MKL1
[19] = NPC library, qHTS dose-response AUC, MKL2
[20] = NPC library, qHTS dose-response AUC, WAGA
[21] = NPC library, qHTS dose-response AUC, CRL7250 control
[22] = NPC library, qHTS dose-response AUC, HACAT control
[23] = NPC library, therapeutic window: Control avg AUC minus MCC avg AUC
[24] = NPC library, therapeutic window: Control avg AUC minus VP-MCC avg AUC
[25] = NPC library, qHTS dose-response AUC, NIH3T3 control
[26] = NPC library, therapeutic window: Control avg AUC minus VN-MCC avg AUC
[27] = NPC library, qHTS dose-response AUC, MCC26
[28] = MIPE library, 11-point DRC, control cell line, sheet S2D
[29] = MIPE library, 11-point DRC, control cell line, sheet S2E
[30] = MIPE library, 11-point DRC, sheet S2D
[31] = MIPE library, 11-point DRC, sheet S2E
[32] = MIPE library, Control AUC minus MCC AUC (therapeutic window), sheet S2D
[33] = MIPE library, Control AUC minus MCC AUC (therapeutic window), sheet S2E
[34] = MIPE library, Control AUC minus VP-MCC AUC (therapeutic window), sheet S2D
[35] = MIPE library, Control AUC minus VP-MCC AUC (therapeutic window), sheet S2E
[36] = MIPE library, Control AUC minus VN-MCC AUC (therapeutic window), sheet S2D
[37] = MIPE library, Control AUC minus VN-MCC AUC (therapeutic window), sheet S2E

## c1ccc(CC2=NCCN2)cc1 [Tolazoline hydrochloride]
[1]; [16]
  HEK293T_AUC: 454.352
[2]; [17]
  UISO_AUC: 451.588
[3]; [18]
  MKL1_AUC: 395.582
[4]; [19]
  MKL2_AUC: 397.927
[5]; [20]
  WAGA_AUC: 433.154
[6]; [21]
  CRL7250_AUC: 475.841
[7]; NPC library
  Control_Avg_AUC: 460.352
[8]; [22]
  HACAT_AUC: 471.166
[9]; NPC library, qHTS dose-response AUC, MCC13
  MCC13_AUC: 452.083
[10]; NPC library
  MCC_Avg_AUC: 420.949
[11]; [23]
  Control-MCC: 39.4026
[12]; NPC library
  VP-MCC_Avg_AUC: 408.888
[12]; [24]
  Control-VP-MCC: 51.4641
[13]; [25]
  NIH3T3_AUC: 440.048
[14]; NPC library
  VN-MCC_Avg_AUC: 433.01
[14]; [26]
  Control-VN-MCC: 27.3412
[15]; [27]
  MCC26_AUC: 395.361

## CC[C@@]1(O)C(=O)OCc2c1cc1n(c2=O)Cc2cc3c(CN(C)C)c(O)ccc3nc2-1 [Topotecan HCl]
[1]; [28]
  HEK293T_AUC: 287.732
[1]; [29]
  HEK293T_AUC: 287.732
[1]; [16]
  HEK293T_AUC: 225.562
[2]; [30]
  UISO_AUC: 243.367
[2]; [31]
  UISO_AUC: 243.367
[2]; [17]
  UISO_AUC: 244.938
[2]; follow-up screen, UISO, replicate 1
  Area under the dose-response curve (AUC) UISO Replicate 1: 203.8
[2]; follow-up screen, UISO, replicate 2
  Area under the dose-response curve (AUC) UISO Replicate 2: 226.9
[2]; follow-up screen, UISO, replicate 3
  Area under the dose-response curve (AUC) UISO Replicate 3: 223.1
[3]; [30]
  MKL1_AUC: 269.988
[3]; [31]
  MKL1_AUC: 269.988
[3]; [18]
  MKL1_AUC: 185.429
[3]; follow-up screen, MKL-1, replicate 1
  Area under the dose-response curve (AUC) MKL-1 Replicate 1: 222.0
[3]; follow-up screen, MKL-1, replicate 2
  Area under the dose-response curve (AUC) MKL-1 Replicate 2: 224.3
[3]; follow-up screen, MKL-1, replicate 3
  Area under the dose-response curve (AUC) MKL-1 Replicate 3: 226.9
[4]; [30]
  MKL2_AUC: 250.703
[4]; [31]
  MKL2_AUC: 250.703
[4]; [19]
  MKL2_AUC: 174.677
[4]; follow-up screen, MKL-2, replicate 1
  Area under the dose-response curve (AUC) MKL-2 Replicate 1: 184.1
[4]; follow-up screen, MKL-2, replicate 2
  Area under the dose-response curve (AUC) MKL-2 Replicate 2: 181.9
[4]; follow-up screen, MKL-2, replicate 3
  Area under the dose-response curve (AUC) MKL-2 Replicate 3: 262.9
[5]; [30]
  WAGA_AUC: 175.987
[5]; [31]
  WAGA_AUC: 175.987
[5]; [20]
  WAGA_AUC: 138.765
[5]; follow-up screen, WAGA, replicate 1
  Area under the dose-response curve (AUC) WAGA Replicate 1: 206.9
[5]; follow-up screen, WAGA, replicate 2
  Area under the dose-response curve (AUC) WAGA Replicate 2: 188.0
[5]; follow-up screen, WAGA, replicate 3
  Area under the dose-response curve (AUC) WAGA Replicate 3: 185.4
[6]; [28]
  CRL7250_AUC: 391.937
[6]; [29]
  CRL7250_AUC: 391.937
[6]; [21]
  CRL7250_AUC: 360.108
[7]; MIPE library, sheet S2D
  Control_Avg_AUC: 345.124
[7]; MIPE library, sheet S2E
  Control_Avg_AUC: 345.124
[7]; NPC library
  Control_Avg_AUC: 300.661
[8]; [28]
  HACAT_AUC: 331.992
[8]; [29]
  HACAT_AUC: 331.992
[8]; [22]
  HACAT_AUC: 242.195
[9]; [30]
  MCC13_AUC: 336.51
[9]; [31]
  MCC13_AUC: 336.51
[10]; MIPE library, sheet S2D
  MCC_Avg_AUC: 267.463
[10]; MIPE library, sheet S2E
  MCC_Avg_AUC: 267.463
[10]; NPC library
  MCC_Avg_AUC: 219.265
[11]; [32]
  Control-MCC: 77.6607
[11]; [33]
  Control-MCC: 77.6607
[11]; [23]
  Control-MCC: 81.3959
[12]; [34]
  Control-VP-MCC: 112.898
[12]; [35]
  Control-VP-MCC: 112.898
[12]; MIPE library, sheet S2D
  VP-MCC_Avg_AUC: 232.226
[12]; MIPE library, sheet S2E
  VP-MCC_Avg_AUC: 232.226
[12]; NPC library
  VP-MCC_Avg_AUC: 166.29
[12]; [24]
  Control-VP-MCC: 134.37
[13]; [28]
  NIH3T3_AUC: 368.835
[13]; [29]
  NIH3T3_AUC: 368.835
[13]; [25]
  NIH3T3_AUC: 374.778
[14]; [36]
  Control-VN-MCC: 42.4232
[14]; [37]
  Control-VN-MCC: 42.4232
[14]; MIPE library, sheet S2D
  VN-MCC_Avg_AUC: 302.701
[14]; MIPE library, sheet S2E
  VN-MCC_Avg_AUC: 302.701
[14]; NPC library
  VN-MCC_Avg_AUC: 272.239
[14]; [26]
  Control-VN-MCC: 28.4215
[15]; [30]
  MCC26_AUC: 328.226
[15]; [31]
  MCC26_AUC: 328.226
[15]; [27]
  MCC26_AUC: 267.734
[15]; follow-up screen, MCC26, replicate 1
  Area under the dose-response curve (AUC) MCC26 Replicate 1: 273.0
[15]; follow-up screen, MCC26, replicate 2
  Area under the dose-response curve (AUC) MCC26 Replicate 2: 257.6
[15]; follow-up screen, MCC26, replicate 3
  Area under the dose-response curve (AUC) MCC26 Replicate 3: 280.5

## C=Cc1c(C)c2cc3nc(cc4[nH]c(cc5nc(cc1[nH]2)C(C)=C5CCC(=O)O)c(CCC(=O)OC)c4C)[C@@]1(C)C3=CC=C(C(=O)OC)[C@H]1C(=O)OC [Verteporfin]
[1]; [28]
  HEK293T_AUC: 435.497
[1]; [29]
  HEK293T_AUC: 435.497
[2]; [30]
  UISO_AUC: 271.383
[2]; [31]
  UISO_AUC: 271.383
[3]; [30]
  MKL1_AUC: 279.212
[3]; [31]
  MKL1_AUC: 279.212
[4]; [30]
  MKL2_AUC: 217.219
[4]; [31]
  MKL2_AUC: 217.219
[5]; [30]
  WAGA_AUC: 266.998
[5]; [31]
  WAGA_AUC: 266.998
[6]; [28]
  CRL7250_AUC: 465.081
[6]; [29]
  CRL7250_AUC: 465.081
[7]; MIPE library, sheet S2D
  Control_Avg_AUC: 463.283
[7]; MIPE library, sheet S2E
  Control_Avg_AUC: 463.283
[8]; [28]
  HACAT_AUC: 478.04
[8]; [29]
  HACAT_AUC: 478.04
[9]; [30]
  MCC13_AUC: 440.785
[9]; [31]
  MCC13_AUC: 440.785
[10]; MIPE library, sheet S2D
  MCC_Avg_AUC: 312.125
[10]; MIPE library, sheet S2E
  MCC_Avg_AUC: 312.125
[11]; [32]
  Control-MCC: 151.157
[11]; [33]
  Control-MCC: 151.157
[12]; [34]
  Control-VP-MCC: 208.806
[12]; [35]
  Control-VP-MCC: 208.806
[12]; MIPE library, sheet S2D
  VP-MCC_Avg_AUC: 254.477
[12]; MIPE library, sheet S2E
  VP-MCC_Avg_AUC: 254.477
[13]; [28]
  NIH3T3_AUC: 474.512
[13]; [29]
  NIH3T3_AUC: 474.512
[14]; [36]
  Control-VN-MCC: 93.5089
[14]; [37]
  Control-VN-MCC: 93.5089
[14]; MIPE library, sheet S2D
  VN-MCC_Avg_AUC: 369.774
[14]; MIPE library, sheet S2E
  VN-MCC_Avg_AUC: 369.774
[15]; [30]
  MCC26_AUC: 397.153
[15]; [31]
  MCC26_AUC: 397.153
